The record followed here is patent publication US9359371B2, “Bicyclic substituted pyrimidine compounds” (Xuanzhu Pharma Co., Ltd., priority 2012, dated 2016).

Series [1] deals with PDE-5 enzyme (human blood platelets) (Homo sapiens (Human), UniProt O76074). Put plainly: PDE-5 enzyme assay, [3H]cGMP. In kind it is biochemical.
A short description of series [2]: Pharmacokinetics (PK) in SD rats. The settings on record: rat; for AUC(0-inf) / Cmax / Tmax / half-life / bioavailability: SD, plasma; for bioavailability: read-out: F % (absolute bioavailability). In kind it is in vivo. The protocol:
Experiment 9: Assay of Pharmacokinetics (PK) of the Compounds of the Present Invention in SD Rats
Compound 1-54 of the present invention were prepared by the methods described in Example 1 to Example 54 of the present invention.
The control drug Avanafil, of which the structure was stated above, was purchased commercially.
Collection of the rat's blood: The animal was fixed. The tail was warmed with a water bath 10 min before the collection time. About 200 μL of whole blood was collected from the tail vein. The collected blood was collected into anticoagulant tubes containing heparin sodium. The blood samples were centrifuged at 4° C. by 8000 rpm for 6 min to give the plasma samples, which should be prepared within 30 min after the collection of blood. The plasma samples were stored in a freezer of −80° C. until test.
The result output by Analyst 1.5.1 of AB Company was used as the concentration of the tested sample (plasma sample). The mean value, standard deviation, variable coefficient and the like were calculated by Microsoft Excel (except for the result directly output by Analyst 1.5.1). Parameters of PK were calculated by Pharsight Phoenix 6.2 software. Formula for calculating oral bioavailability: F %=AUCinf−po*Doseiv/AUCinf−iv*Dosepo.

The target of series [3] is hERG channel (Homo sapiens (Human), UniProt Q12809). Put plainly: hERG potassium channel whole-cell patch clamp on CHO-K1 cell line. The text has this: Experiment 8: Detection of Inhibitory Effect of the Compounds of the Present Invention on hERG Potassium Channel by the Patch Clamp Method
Chain of hERG channel (Q12809 whole entry): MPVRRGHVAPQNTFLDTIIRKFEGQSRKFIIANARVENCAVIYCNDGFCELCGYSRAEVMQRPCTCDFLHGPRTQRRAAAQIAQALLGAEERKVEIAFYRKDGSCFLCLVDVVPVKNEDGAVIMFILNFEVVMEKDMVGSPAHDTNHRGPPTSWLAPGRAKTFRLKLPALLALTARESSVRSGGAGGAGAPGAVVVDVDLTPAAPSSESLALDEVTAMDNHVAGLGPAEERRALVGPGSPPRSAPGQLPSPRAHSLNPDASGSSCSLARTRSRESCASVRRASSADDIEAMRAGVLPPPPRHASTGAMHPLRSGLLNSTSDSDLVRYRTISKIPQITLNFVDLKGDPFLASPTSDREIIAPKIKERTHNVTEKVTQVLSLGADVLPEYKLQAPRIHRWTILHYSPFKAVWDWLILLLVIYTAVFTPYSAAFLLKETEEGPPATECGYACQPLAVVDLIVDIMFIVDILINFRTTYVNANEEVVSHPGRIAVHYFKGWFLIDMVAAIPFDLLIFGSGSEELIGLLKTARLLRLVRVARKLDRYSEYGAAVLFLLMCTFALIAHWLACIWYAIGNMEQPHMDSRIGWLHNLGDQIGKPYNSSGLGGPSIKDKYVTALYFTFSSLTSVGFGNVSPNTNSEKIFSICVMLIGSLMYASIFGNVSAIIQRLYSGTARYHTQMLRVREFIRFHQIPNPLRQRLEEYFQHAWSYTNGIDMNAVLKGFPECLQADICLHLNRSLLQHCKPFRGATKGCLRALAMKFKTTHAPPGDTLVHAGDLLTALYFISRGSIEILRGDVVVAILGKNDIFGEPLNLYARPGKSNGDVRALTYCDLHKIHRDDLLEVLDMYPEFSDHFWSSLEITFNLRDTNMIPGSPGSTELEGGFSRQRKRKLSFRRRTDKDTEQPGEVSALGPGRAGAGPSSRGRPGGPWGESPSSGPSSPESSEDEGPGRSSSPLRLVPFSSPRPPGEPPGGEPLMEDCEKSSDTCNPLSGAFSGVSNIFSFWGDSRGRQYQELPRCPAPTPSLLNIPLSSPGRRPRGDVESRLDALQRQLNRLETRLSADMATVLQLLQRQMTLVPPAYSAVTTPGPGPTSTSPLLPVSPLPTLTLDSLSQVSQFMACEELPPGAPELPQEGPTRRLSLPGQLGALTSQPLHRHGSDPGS
Rapidly activated human delayed rectifying outward potassium current (IKr) is mainly mediated by hERG ion channel and is involved in repolarization of human cardiac muscle cell. Clinically, blocking of the current by a drug is the main cause of QT interval prolongation syndrome, acute arrhythmia and even sudden death. The main purpose of the experiment is to test the blocking effect of the compounds of the present invention on hERG channel, and to determine the half maximal inhibitory concentration (IC50) of the compounds.
The experiment mainly included: (1) recording hERG current by patch clamp technique on CHO-K1 cell line which stably expressed hERG channel; (2) calculating the Inhibition rate of each concentration according to hERG tail current; (3) testing each compound at 5 concentrations to calculate IC50; (4) testing 2 cells at each concentration; (5) a positive control.
The structures and synthesis of Compound 88 (WO-88) and Compound 93 (WO-93) as disclosed in WO200119802A were described in Example 55 and Example 56.
Drug for positive control: Amitriptyline hydrochloride (Sigma-Aldrich, an international standard blocker for hERG channel)
Pippette Solution (in mM): KCl 120, KOH 31.25, CaCl2 5.374, MgCl2 1.75, Ethylene glycol-bis(β-aminoethyl ether)-N,N,N′,N′-tetraacetic acid (EGTA) 10, HEPES 10, Na2-ATP 4, adjusted to a pH of 7.2 with 1N potassium hydroxide; adjusted to an osmotic pressure of 280-290 mOsm; preserved at −20° C. after filtration.
Preparation of compounds: Some of the compounds of the present invention and Amitriptyline hydrochloride as the positive control drug were separately dissolved in 100% DMSO (Merck, 61850125001730), then prepared into stock solutions of 30 mM. Before the experiment, the above stock solutions were diluted with DMSO to a concentration of 1000-fold of the experimental concentration. Then the diluted solutions were further diluted with extracellular solution by 1:1000 to the required experimental concentration. The final concentration of DMSO in the extracellular solution was kept as 0.1%.
Stable cell line CHO-hERG was purchased from AVIVA Company. The hERG current on the cell line was recorded. For the purpose of quality control, the smallest seal resistance was no less than 500 MΩ, and the hERG current was no less than 0.4 nA.
The hERG current was recorded by a whole-cell patch clamp technique. Cell suspension was added into a 35-mm culture dish. The culture dish was placed on the objective table of an inverted microscope. Upon cell attachment, perfusion was conducted with the extracellular solution at a flow rate of 1-2 mL/min.
Glass microelectrode with the pipette tip resistance of 2-5 MΩ was controlled by a microelectrode puller via a two-step process. After the whole-cell record was set up, the clamp potential was kept at −80 mV. The cell was depolarized to +60 mV by applying a voltage stimulus, and then repolarized to −50 mV to obtain the hERG tail current. Recordation was conducted after the current was stable. The extracellular perfusion was started from the lowest concentration, with 5-10 min for each concentration until the current was stable, and then conducted with the next concentration.
Stimulus payment and signal collection were performed by A/D-D/A conversion using Digidata 1440 (Molecular Devices) and pCLAMP software (Version 10.2, Molecular Devices). Signal amplification was performed on a patch clamp amplifier (Multiclamp 700B, Molecular Devices), with a filter of 1 KHz. Further data analysis and curve fitting were conducted by Clampfit (version 10.2, Molecular Devices) and Prism. The data were presented as mean value±standard deviation.
In the process of data analysis, the peak value and the baseline of the tail current were corrected when determining the blocking effect on hERG.

The test system of series [4] is bovine retinal PDE-6. Put plainly: PDE-6 enzyme assay, [3H]cGMP. Format: biochemical. Conditions: for Selectivity (PDE-6/PDE-5): IC50 for PDE-6/IC50 for PDE-5. The protocol:
(§1) Experiment 3: Measurement of Enzyme Activity on PDE-6 Enzyme In Vitro
(§2) Source of enzyme: PDE-6, bovine retinal PDE-6
(§3) Method: The test compound or solvent was incubated at 25° C. for 15 min with enzyme solution (0.2 μg/mL) in Tris-HCl buffer of pH 7.5. 100 μM cGMP and 0.03 μM [^3H] cGMP were then added to activate the reaction. The mixture was incubated for 20 min. The reaction was stopped at 100° C. By addition of snake venom nucleotidase, the product [^3H] GMP was converted into [^3H] Guanosine, which was separated with AG1-X2 resin. The amount of [^3H] Guanosine was measured.

Series [5] deals with bovine retinal PDE-6 (Bos taurus (Bovine), UniProt P11541+P23439). Put plainly: PDE-6 enzyme assay, [3H]cGMP. In kind it is biochemical. The protocol:
as §1, §2, §3

Series [6] concerns the target PDE-11 (Homo sapiens (Human), UniProt Q9HCR9). Put plainly: Caliper Mobility-Shift PDE-11 Assay. In kind it is biochemical. The settings on record: Table 4; maximum final concentration 10 μM. As for the experimental part: Experiment 4: Measurement of Pharmacological Activity on PDE-11 Enzyme In Vitro
Method: enzyme assay, Caliper Mobility-Shift PDE-11 Assay
The test compound was accurately weighed, dissolved in DMSO, mixed thoroughly and formulated into 10 mM. The above stock solution was diluted to a concentration of 0.5 mM with DMSO, and then was gradiently diluted by a dilution factor of 3.162, resulting in 11 concentrations in total.
To a 96-well plate, 20 μL of 10 μM FL-cGMP as the substrate was added; then 1 μL solution of the compound in DMSO or DMSO solution without compound was added; and then 29 μL of 0.28 ng/μL PDE-11 enzyme buffer (100 mM Hepes pH 7.5, 5 mM MgCl2, 0.002% Brij-35) was added. The maximum final concentration of the compound was 10 μM. The plate was incubated at 30° C. for 1 h, and 20 μL of 70 μM EDTA was then added to stop the reaction. 26 μL of solution of each well was transferred to a 384-well plate. The conversion was read on a EZ reader II. The Inhibition rate was calculated by the formula below, and used to calculate IC50 by Prism 5.0 Inhibition rate=[Conversion (ZPE)−Conversion (sample)]×100/[Conversion (ZPE)−Conversion (HPE)]
Note: HPE: control without enzyme; ZPE: control without compound

Series [7] addresses PDE-5A enzyme (Homo sapiens (Human), UniProt O76074). Put plainly: Caliper Mobility-Shift PDE-5A Assay. Format: biochemical. Conditions: Table 1; Avanafil value is the control. As for the experimental part: Experiment 1: Measurement of Enzymatic Activity In Vitro
PDE-5A enzyme: humanized PDE-5 enzyme, SignalChem, Cat#93-31G-20.
Method: enzyme assay, Caliper Mobility-Shift PDE-5A Assay:
The test compound was accurately weighed, dissolved in DMSO, mixed thoroughly and formulated into 10 mM.
The maximum final concentration of the compound was 10 μM. The plate was incubated at 30° C. for 1 h, and 20 μL of 70 μM EDTA was then added to stop the reaction. 26 μL of solution of each well was transferred to a 384-well plate. The conversion was read on a EZ reader II. The inhibition rate was calculated by the formula below, and used to calculate IC50 by Prism 5.0 Inhibition rate=[Conversion (ZPE)−Conversion (sample)]×100/[Conversion (ZPE)−Conversion (HPE)]
Note: HPE: control without enzyme; ZPE: control without a test compound

Where [8] appears, read: po, intragastric administration, 1 mg/kg.
[9] abbreviates: Table 3, read-out: IC50 on PDE-6.
[10] abbreviates: Table 4-1, read-out: PDE-6 (IC50 nM).
Where [11] appears, read: Table 2, human blood platelet enzyme, read-out: IC50 on PDE-5.
Where [12] appears, read: Table 4-1, read-out: PDE-5 (IC50 nM).
[13] abbreviates: po, intragastric administration, 5 mg/kg.

Where two headings read alike, the source gives them in different places. A value given as a limit tells only on which side of the number the result lay.

By IC50 is commonly meant the point on the concentration scale where inhibition reaches its midpoint. Usually AUC(0-inf) stands for the area under the concentration-time curve extrapolated to infinity. For orientation: Cmax means the maximum level reached in the sampled fluid or tissue. As a reminder, the Tmax is the time from dosing to the highest level. By half-life is commonly meant the time needed for the level to fall by half in the phase considered. In general, bioavailability refers to the share of a dose that reaches the circulation, judged against a reference dose that is usually intravenous.

Chain of bovine retinal PDE-6 (Bos taurus (Bovine), UniProt P11541+P23439) (P11541 whole entry, looked up): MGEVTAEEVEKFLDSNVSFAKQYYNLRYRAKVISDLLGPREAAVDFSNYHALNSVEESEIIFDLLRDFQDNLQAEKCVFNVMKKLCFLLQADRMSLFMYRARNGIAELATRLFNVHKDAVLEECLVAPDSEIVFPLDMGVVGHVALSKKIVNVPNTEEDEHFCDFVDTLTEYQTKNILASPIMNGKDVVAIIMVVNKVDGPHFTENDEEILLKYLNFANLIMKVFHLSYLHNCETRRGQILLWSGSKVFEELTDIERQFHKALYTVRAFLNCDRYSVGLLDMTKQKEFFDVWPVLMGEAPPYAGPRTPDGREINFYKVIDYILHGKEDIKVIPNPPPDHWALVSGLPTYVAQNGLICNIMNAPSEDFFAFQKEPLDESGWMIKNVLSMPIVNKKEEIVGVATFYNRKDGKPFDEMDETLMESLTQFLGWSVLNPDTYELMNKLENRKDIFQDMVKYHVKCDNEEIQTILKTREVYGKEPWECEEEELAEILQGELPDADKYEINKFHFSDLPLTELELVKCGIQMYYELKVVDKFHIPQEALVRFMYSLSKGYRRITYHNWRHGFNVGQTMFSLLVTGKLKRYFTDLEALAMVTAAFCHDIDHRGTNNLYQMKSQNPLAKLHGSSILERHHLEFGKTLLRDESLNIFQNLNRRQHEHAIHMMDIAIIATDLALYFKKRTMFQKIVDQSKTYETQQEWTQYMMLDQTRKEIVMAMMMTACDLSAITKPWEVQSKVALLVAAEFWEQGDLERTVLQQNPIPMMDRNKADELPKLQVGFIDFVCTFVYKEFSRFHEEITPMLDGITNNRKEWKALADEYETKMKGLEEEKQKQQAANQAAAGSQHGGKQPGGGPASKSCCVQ
Chain of bovine retinal PDE-6 (Bos taurus (Bovine), UniProt P11541+P23439) (P23439 whole entry, looked up): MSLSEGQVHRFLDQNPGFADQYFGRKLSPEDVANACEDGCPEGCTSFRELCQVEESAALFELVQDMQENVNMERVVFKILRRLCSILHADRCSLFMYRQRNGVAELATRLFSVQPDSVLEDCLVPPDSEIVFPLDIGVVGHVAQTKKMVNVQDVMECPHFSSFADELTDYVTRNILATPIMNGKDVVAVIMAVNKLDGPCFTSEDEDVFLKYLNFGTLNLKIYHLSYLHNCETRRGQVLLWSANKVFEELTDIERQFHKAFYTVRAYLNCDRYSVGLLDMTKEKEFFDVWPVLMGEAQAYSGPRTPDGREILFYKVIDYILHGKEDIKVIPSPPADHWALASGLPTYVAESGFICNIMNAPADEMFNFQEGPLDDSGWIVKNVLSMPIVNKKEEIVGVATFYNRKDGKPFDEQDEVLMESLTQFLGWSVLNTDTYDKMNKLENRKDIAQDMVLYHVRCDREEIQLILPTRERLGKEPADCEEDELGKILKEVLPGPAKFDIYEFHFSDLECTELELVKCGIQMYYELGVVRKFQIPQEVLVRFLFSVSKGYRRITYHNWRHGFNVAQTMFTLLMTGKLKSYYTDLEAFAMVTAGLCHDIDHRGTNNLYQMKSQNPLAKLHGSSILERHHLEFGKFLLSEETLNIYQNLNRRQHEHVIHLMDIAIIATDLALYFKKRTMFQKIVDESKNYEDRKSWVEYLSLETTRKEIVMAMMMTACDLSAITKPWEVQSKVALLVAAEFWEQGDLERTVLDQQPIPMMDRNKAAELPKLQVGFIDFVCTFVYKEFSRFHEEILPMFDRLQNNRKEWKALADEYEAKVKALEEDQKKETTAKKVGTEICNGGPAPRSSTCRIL
Chain of PDE-11 (Q9HCR9 whole entry): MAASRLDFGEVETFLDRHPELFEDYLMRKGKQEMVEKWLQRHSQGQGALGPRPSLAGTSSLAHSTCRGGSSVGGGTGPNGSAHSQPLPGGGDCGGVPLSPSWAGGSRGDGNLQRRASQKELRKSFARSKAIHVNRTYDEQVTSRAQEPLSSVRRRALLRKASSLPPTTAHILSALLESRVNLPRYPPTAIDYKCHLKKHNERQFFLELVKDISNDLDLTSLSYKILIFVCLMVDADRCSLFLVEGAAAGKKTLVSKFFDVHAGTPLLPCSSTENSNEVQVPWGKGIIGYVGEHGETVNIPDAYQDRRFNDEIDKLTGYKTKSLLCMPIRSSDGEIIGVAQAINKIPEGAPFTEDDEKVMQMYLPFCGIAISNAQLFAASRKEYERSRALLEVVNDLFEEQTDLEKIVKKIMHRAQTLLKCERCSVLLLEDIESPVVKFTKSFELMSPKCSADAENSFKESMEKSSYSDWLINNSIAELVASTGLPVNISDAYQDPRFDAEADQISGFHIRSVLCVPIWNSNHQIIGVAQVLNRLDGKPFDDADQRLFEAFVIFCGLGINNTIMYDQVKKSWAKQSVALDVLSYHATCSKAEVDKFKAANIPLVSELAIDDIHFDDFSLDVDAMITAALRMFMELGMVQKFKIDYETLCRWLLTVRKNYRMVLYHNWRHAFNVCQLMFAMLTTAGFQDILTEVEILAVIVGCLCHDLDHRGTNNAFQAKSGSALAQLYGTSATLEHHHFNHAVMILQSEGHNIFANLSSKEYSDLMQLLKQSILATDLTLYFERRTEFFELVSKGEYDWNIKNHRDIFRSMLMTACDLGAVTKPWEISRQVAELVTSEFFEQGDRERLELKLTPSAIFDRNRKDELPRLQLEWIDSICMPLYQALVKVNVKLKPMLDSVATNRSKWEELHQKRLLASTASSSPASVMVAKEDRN

In the case of `COc1ccc(CNc2nc(N3CCC[C@H]3CO)ncc2C(=O)N[C@H]2CC[C@H](O)CC2)cc1Cl` [WO-88, N-((trans)-4-hydroxylcyclohexan-1-yl)-4-((3-chloro-4-methoxybenzyl)amino)-2-((s)-2-(hydroxymethyl)tetrahydropyrrole-1-yl)-5-pyrimidine formamide, reference compound], half-maximal inhibition in series [1] (IC50) required 0.59 nM. In addition, in series [2] (setting [8]), the AUC(0-inf) is 63 ng·h/mL, the Cmax was found to be 29 ng/mL, the Tmax was 0.5 h and the half-life was 2.8 h. The bioavailability in series [2] (setting [8]) turned out to be 23%. In series [2] (intravenous injection, 1 mg/kg), this compound showed an AUC(0-inf) of 347 ng·h/mL, a half-life of 1 h, a Cl_obs of 48.3 mL/min/kg and a Vss_obs of 3.6 L/kg. The 50% inhibitory concentration (IC50) in series [3] is > 30000 nM.
On to `COc1ccc(CNc2nc(N3CC4CC4C3)ncc2C(=O)N[C@H]2CC[C@H](O)CC2)cc1C` (stereo partly drawn) [Compound 50, 2-(3-azabicyclo[3.1.0]hexan-3-yl)-N-((trans)-4-hydroxycyclohexyl)-4-((4-methoxy-3-methylbenzyl)amino)pyrimidine-5-formamide], for which the “Selectivity (PDE-6/PDE-5)” value in series [4] is reported as 85. In series [4] (selectivity >70 called high), the “selectivity on PDE-5 enzyme versus PDE-6 (in words)” value was “higher selectivity on PDE-5 enzyme than to PDE-6”. For the same compound, the IC50 in series [5] (setting [9]) worked out at 660 nM. Further, the IC50 in series [5] (setting [10]) is 660 nM. The IC50 in series [1] (setting [11]) came out at 7.72 nM. In series [1] (setting [12]), the half-maximal inhibitory concentration (IC50) was 7.72 nM. For the same compound, in series [2] (setting [13]), the AUC(0-inf) amounted to 4720 ng·h/mL, the concentration peaked (Cmax) at 377 ng/mL, the Tmax was 6 h and the half-life was 5.4 h. Besides, in series [2] (setting [13]), the bioavailability came out at 65%. In series [2] (intravenous injection, 2 mg/kg), this compound showed an AUC(0-inf) of 2580 ng·h/mL, a half-life of 4.1 h, a Cl_obs of 13 mL/min/kg and a Vss_obs of 4.48 L/kg. For the same compound, the IC50 in series [3] was > 30000 nM. Besides, the “inhibitory effect on hERG channel (in words)” value in series [3] (human, CHO-K1 cells stably expressing hERG channel, pH 7.4) was “none of Compound 3, 11 and 50 of the present invention had a significant inhibitory effect”.
On to `COc1ccc(CNc2nc(N3Cc4cccnc4C3)ncc2C(=O)N[C@H]2CC[C@H](O)CC2)cc1Cl` [WO-93, N-(trans-4-hydroxycyclohexan-1-yl)-4-((3-chloro-4-methoxybenzyl)amino)-2-(5H-pyrrolo[3,4-b]pyridin-6(7H)yl)-5-pyrimidine formamide, reference compound], for which, in series [2] (setting [8]), the AUC(0-inf) is 89 ng·h/mL, the highest level (Cmax) was 15 ng/mL, the Tmax stood at 4 h and the half-life was 2.8 h. Further, the bioavailability in series [2] (setting [8]) came to 16%. For the same compound, in series [2] (intravenous injection, 1 mg/kg), the AUC(0-inf) was determined as 709 ng·h/mL, the half-life is 2.6 h, the Cl_obs is 25 mL/min/kg and the Vss_obs is given as 5.0 L/kg. Further, the IC50 in series [3] was > 30000 nM.
As to `COc1ccc(CNc2nc(N3CCC4(CC4)C3)ncc2C(=O)NCCN2CCN(C)CC2)cc1Cl` [Compound 46, 4-((3-chloro-4-methoxybenzyl)amino)-N-(2-(4-methylpiperazin-1-yl)ethyl)-2-(5-azaspiro[2.4]heptan-5-yl)pyrimidine-5-formamide], the “Selectivity (PDE-6/PDE-5)” value in series [4] amounted to 1000. Moreover, the IC50 in series [5] (setting [9]) was 310 nM; in series [5] (setting [10]), 310 nM; in series [1] (setting [11]), 0.31 nM; in series [1] (setting [12]) it was 0.31 nM; in series [6], > 10000 nM; in series [7], 14.9 nM. Also, the AUC(0-inf) in series [2] (intravenous injection, 1 mg/kg) was determined as 214 ng·h/mL. Further, in series [2] (intravenous injection, 1 mg/kg), the half-life was 13.9 h. In series [2] (intravenous injection, 1 mg/kg), this compound showed a Cl_obs of 79 mL/min/kg. Moreover, the Vss_obs in series [2] (intravenous injection, 1 mg/kg) was determined as 86.40 L/kg.
